Assay results as given in ChEMBL document CHEMBL1201862, “PubChem BioAssay data set” (2004).
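Step 1: Grow cells in 96-well plates. Step 2: Expose to compound for 48 hours at 5 concentrations. Step 3: Interpolate endpoints linearly; if unreached, use highest concentration. GI50 marks 50% less growth.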 Calls of active or inactive are those of the source. Rule as the data show it: active = GI50 up to about 1.1 µM and inactive = higher.

Columns and labels:
Test in all cases: DTP human tumour cell line panel, 48 h
CAKI-1 = test system: CAKI-1
CCRF-CEM = test system: CCRF-CEM
EKVX = test system: EKVX
HCC 2998 = test system: HCC 2998
HCT-15 = test system: HCT-15
HOP-62 = test system: HOP-62
HT-29 = test system: HT-29
Hs-578T = test system: Hs-578T
Malme-3M = test system: Malme-3M
NCI-H522 = test system: NCI-H522
PC-3 = test system: PC-3
RPMI-8226 = test system: RPMI-8226
RXF 393 = test system: RXF 393
SK-MEL-5 = test system: SK-MEL-5
SN12C = test system: SN12C
SNB-19 = test system: SNB-19
SNB-75 = test system: SNB-75
U-251 = test system: U-251
UACC-257 = test system: UACC-257
SK-OV-3 = test system: SK-OV-3

SMILES	GI50 (CAKI-1)	GI50 (CCRF-CEM)	GI50 (EKVX)	GI50 (HCC 2998)	GI50 (HCT-15) [µM]	GI50 (HOP-62)	GI50 (HT-29)	GI50 (Hs-578T)	GI50 (Malme-3M)	GI50 (NCI-H522)	GI50 (PC-3)	GI50 (RPMI-8226)	GI50 (RXF 393)	GI50 (SK-MEL-5)	GI50 (SN12C)	GI50 (SNB-19)	GI50 (SNB-75)	GI50 (U-251)	GI50 (UACC-257)	GI50 (SK-OV-3)
NC(=O)C(N)Cc1ccc(O)cn1 (configuration not stated)	> 100 µM (inactive)	> 100 µM (inactive)	> 100 µM (inactive)	> 100 µM (inactive)	> 100	> 100 µM (inactive)	> 100 µM (inactive)	> 100 µM (inactive)	> 100 µM (inactive)	> 100 µM (inactive)	> 100 µM (inactive)	> 100 µM (inactive)	> 100 µM (inactive)	> 100 µM (inactive)	> 100 µM (inactive)	> 100 µM (inactive)	> 100 µM (inactive)	> 100 µM (inactive)	> 100 µM (inactive)	–
CCCCCCCCCCCCCCCCS(=O)(=O)c1ccc(NN)cc1	> 10 µM (inactive)	1.63 µM (inactive)	> 10 µM (inactive)	> 10 µM (inactive)	> 10	> 10 µM (inactive)	> 10 µM (inactive)	7.96 µM (inactive)	> 10 µM (inactive)	5.9 µM (inactive)	2.83 µM (inactive)	5.33 µM (inactive)	> 10 µM (inactive)	> 10 µM (inactive)	> 10 µM (inactive)	> 10 µM (inactive)	–	6.19 µM (inactive)	> 10 µM (inactive)	> 10 µM (inactive)
CN1CCc2ccccc2C1Cc1ccccc1NC(=O)c1sc2ccccc2c1Cl (configuration not stated)	> 100 µM (inactive)	50.9 µM (inactive)	> 100 µM (inactive)	> 100 µM (inactive)	> 100	> 100 µM (inactive)	–	> 100 µM (inactive)	> 100 µM (inactive)	> 100 µM (inactive)	> 100 µM (inactive)	> 100 µM (inactive)	> 100 µM (inactive)	> 100 µM (inactive)	> 100 µM (inactive)	> 100 µM (inactive)	> 100 µM (inactive)	> 100 µM (inactive)	> 100 µM (inactive)	> 100 µM (inactive)
Oc1ccc(SCc2ccc(NCc3ccccc3)cc2)cc1	19.6 µM (inactive)	1.24 µM (inactive)	19.4 µM (inactive)	25.2 µM (inactive)	8.97	46.6 µM (inactive)	20 µM (inactive)	53 µM (inactive)	31.7 µM (inactive)	20 µM (inactive)	18.9 µM (inactive)	–	19.9 µM (inactive)	20.7 µM (inactive)	24.5 µM (inactive)	23.9 µM (inactive)	21.6 µM (inactive)	24.4 µM (inactive)	29.9 µM (inactive)	62.8 µM (inactive)
CC1(C)[C@@H](Cn2cc(I)c(=O)[nH]c2=O)CC[C@@]1(C)CO	> 100 µM (inactive)	> 100 µM (inactive)	> 100 µM (inactive)	> 100 µM (inactive)	> 100	> 100 µM (inactive)	–	> 100 µM (inactive)	–	–	> 100 µM (inactive)	–	> 100 µM (inactive)	92.9 µM (inactive)	> 100 µM (inactive)	> 100 µM (inactive)	40.3 µM (inactive)	> 100 µM (inactive)	> 100 µM (inactive)	> 100 µM (inactive)
O=C1C=CC=C/C1=C1\N=C(c2ccccc2OCC(=O)c2ccc(Br)cc2)SS1	34.6 µM (inactive)	> 100 µM (inactive)	89.9 µM (inactive)	> 100 µM (inactive)	> 100	4.08 µM (inactive)	> 100 µM (inactive)	15.2 µM (inactive)	> 100 µM (inactive)	–	> 100 µM (inactive)	> 100 µM (inactive)	30 µM (inactive)	> 100 µM (inactive)	> 100 µM (inactive)	> 100 µM (inactive)	8.93 µM (inactive)	40.3 µM (inactive)	> 100 µM (inactive)	34.3 µM (inactive)
Cc1cc(C)c2c(c1)C/C(=C\c1ccccc1C(=O)O)C2=O	> 100 µM (inactive)	34.6 µM (inactive)	82.6 µM (inactive)	33.5 µM (inactive)	47.4	> 100 µM (inactive)	> 100 µM (inactive)	> 100 µM (inactive)	> 100 µM (inactive)	66.2 µM (inactive)	> 100 µM (inactive)	> 100 µM (inactive)	51.9 µM (inactive)	82.4 µM (inactive)	> 100 µM (inactive)	> 100 µM (inactive)	75.3 µM (inactive)	7.46 µM (inactive)	> 100 µM (inactive)	–
O=C1CC2C=CC(O)C(C1)C2 (configuration not stated)	–	> 100 µM (inactive)	–	> 100 µM (inactive)	> 100	> 100 µM (inactive)	> 100 µM (inactive)	21 µM (inactive)	> 100 µM (inactive)	> 100 µM (inactive)	> 100 µM (inactive)	> 100 µM (inactive)	3.49 µM (inactive)	–	> 100 µM (inactive)	> 100 µM (inactive)	72.6 µM (inactive)	> 100 µM (inactive)	> 100 µM (inactive)	> 100 µM (inactive)
